{"source": "patent US20220281848A1", "about": "“PYRAZOLE-SUBSTITUTED PYRROLIDINONES AS HERBICIDES” (FMC Corporation, priority 2019, published 2022)", "system": "plants", "test": "Test D pre-emergence, other plants of Tables D1 and D3", "type": "in vivo", "settings": "preemergent, 20 DAA", "procedure,_shortened": "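Seeds treated with herbicide safener; sown in soil; glasshouse, 16 h light, 65% humidity. Sprayed day 1 (pre) or ~day 12 (post). Spray in 0.2% v/v adjuvant. Scored 0–100 damage: 20 DAA pre, 15 d post.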", "data": [{"smiles": "CN1C[C@H](c2nn(C)c3c(F)cccc23)[C@@H](C(=O)Nc2cccc(F)c2F)C1=O", "note": "[Compound 2]", "values": [{"measurement": "damage to plant (100=total damage to plant; 0=no damage to plant), ABUTH", "setting": "rate 15", "value": 0}, {"measurement": "damage to plant (100=total damage to plant; 0=no damage to plant), ABUTH", "setting": "rate 30", "value": 0}, {"measurement": "damage to plant (100=total damage to plant; 0=no damage to plant), ABUTH", "setting": "rate 60", "value": 0}, {"measurement": "damage to plant (100=total damage to plant; 0=no damage to plant), ABUTH", "setting": "rate 130", "value": 0}, {"measurement": "damage to plant (100=total damage to plant; 0=no damage to plant), ABUTH", "setting": "rate 250", "value": 0}, {"measurement": "damage to plant (100=total damage to plant; 0=no damage to plant), ABUTH", "setting": "rate 500", "value": 20}, {"measurement": "damage to plant (100=total damage to plant; 0=no damage to plant), AMARE", "setting": "rate 15", "value": 0}, {"measurement": "damage to plant (100=total damage to plant; 0=no damage to plant), AMARE", "setting": "rate 30", "value": 0}, {"measurement": "damage to plant (100=total damage to plant; 0=no damage to plant), AMARE", "setting": "rate 60", "value": 0}, {"measurement": "damage to plant (100=total damage to plant; 0=no damage to plant), AMARE", "setting": "rate 130", "value": 0}, {"measurement": "damage to plant (100=total damage to plant; 0=no damage to plant), AMARE", "setting": "rate 250", "value": 0}, {"measurement": "damage to plant (100=total damage to plant; 0=no damage to plant), AMARE", "setting": "rate 500", "value": 0}, {"measurement": "damage to plant (100=total damage to plant; 0=no damage to plant), BIDPI", "setting": "rate 15", "value": 0}, {"measurement": "damage to plant (100=total damage to plant; 0=no damage to plant), BIDPI", "setting": "rate 30", "value": 0}, {"measurement": "damage to plant (100=total damage to plant; 0=no damage to plant), BIDPI", "setting": "rate 60", "value": 0}, {"measurement": "damage to plant (100=total damage to plant; 0=no damage to plant), BIDPI", "setting": "rate 130", "value": 0}, {"measurement": "damage to plant (100=total damage to plant; 0=no damage to plant), BIDPI", "setting": "rate 250", "value": 0}, {"measurement": "damage to plant (100=total damage to plant; 0=no damage to plant), BIDPI", "setting": "rate 500", "value": 0}, {"measurement": "damage to plant (100=total damage to plant; 0=no damage to plant), BRAPL", "setting": "rate 15", "value": 0}, {"measurement": "damage to plant (100=total damage to plant; 0=no damage to plant), BRAPL", "setting": "rate 30", "value": 70}, {"measurement": "damage to plant (100=total damage to plant; 0=no damage to plant), BRAPL", "setting": "rate 60", "value": 80}, {"measurement": "damage to plant (100=total damage to plant; 0=no damage to plant), BRAPL", "setting": "rate 130", "value": 80}, {"measurement": "damage to plant (100=total damage to plant; 0=no damage to plant), BRAPL", "setting": "rate 250", "value": 90}, {"measurement": "damage to plant (100=total damage to plant; 0=no damage to plant), BRAPL", "setting": "rate 500", "value": 90}, {"measurement": "damage to plant (100=total damage to plant; 0=no damage to plant), CYPES", "setting": "rate 15", "value": 0}, {"measurement": "damage to plant (100=total damage to plant; 0=no damage to plant), CYPES", "setting": "rate 30", "value": 0}, {"measurement": "damage to plant (100=total damage to plant; 0=no damage to plant), CYPES", "setting": "rate 60", "value": 0}, {"measurement": "damage to plant (100=total damage to plant; 0=no damage to plant), CYPES", "setting": "rate 130", "value": 0}, {"measurement": "damage to plant (100=total damage to plant; 0=no damage to plant), CYPES", "setting": "rate 250", "value": 0}, {"measurement": "damage to plant (100=total damage to plant; 0=no damage to plant), CYPES", "setting": "rate 500", "value": 0}, {"measurement": "damage to plant (100=total damage to plant; 0=no damage to plant), DIGSA", "setting": "rate 15", "value": 0}, {"measurement": "damage to plant (100=total damage to plant; 0=no damage to plant), DIGSA", "setting": "rate 30", "value": 90}, {"measurement": "damage to plant (100=total damage to plant; 0=no damage to plant), DIGSA", "setting": "rate 60", "value": 90}, {"measurement": "damage to plant (100=total damage to plant; 0=no damage to plant), DIGSA", "setting": "rate 130", "value": 90}, {"measurement": "damage to plant (100=total damage to plant; 0=no damage to plant), DIGSA", "setting": "rate 250", "value": 90}, {"measurement": "damage to plant (100=total damage to plant; 0=no damage to plant), DIGSA", "setting": "rate 500", "value": 90}, {"measurement": "damage to plant (100=total damage to plant; 0=no damage to plant), ECHCG", "setting": "rate 15", "value": 50}, {"measurement": "damage to plant (100=total damage to plant; 0=no damage to plant), ECHCG", "setting": "rate 30", "value": 50}, {"measurement": "damage to plant (100=total damage to plant; 0=no damage to plant), ECHCG", "setting": "rate 60", "value": 80}, {"measurement": "damage to plant (100=total damage to plant; 0=no damage to plant), ECHCG", "setting": "rate 130", "value": 90}, {"measurement": "damage to plant (100=total damage to plant; 0=no damage to plant), ECHCG", "setting": "rate 250", "value": 90}, {"measurement": "damage to plant (100=total damage to plant; 0=no damage to plant), ECHCG", "setting": "rate 500", "value": 90}, {"measurement": "damage to plant (100=total damage to plant; 0=no damage to plant), ELEIN", "setting": "rate 15", "value": 0}, {"measurement": "damage to plant (100=total damage to plant; 0=no damage to plant), ELEIN", "setting": "rate 30", "value": 0}, {"measurement": "damage to plant (100=total damage to plant; 0=no damage to plant), ELEIN", "setting": "rate 60", "value": 0}, {"measurement": "damage to plant (100=total damage to plant; 0=no damage to plant), ELEIN", "setting": "rate 130", "value": 0}, {"measurement": "damage to plant (100=total damage to plant; 0=no damage to plant), ELEIN", "setting": "rate 250", "value": 0}, {"measurement": "damage to plant (100=total damage to plant; 0=no damage to plant), ELEIN", "setting": "rate 500", "value": 0}, {"measurement": "damage to plant (100=total damage to plant; 0=no damage to plant), EPHHL", "setting": "rate 15", "value": 0}, {"measurement": "damage to plant (100=total damage to plant; 0=no damage to plant), EPHHL", "setting": "rate 30", "value": 0}, {"measurement": "damage to plant (100=total damage to plant; 0=no damage to plant), EPHHL", "setting": "rate 60", "value": 0}, {"measurement": "damage to plant (100=total damage to plant; 0=no damage to plant), EPHHL", "setting": "rate 130", "value": 0}, {"measurement": "damage to plant (100=total damage to plant; 0=no damage to plant), EPHHL", "setting": "rate 250", "value": 0}, {"measurement": "damage to plant (100=total damage to plant; 0=no damage to plant), EPHHL", "setting": "rate 500", "value": 10}, {"measurement": "damage to plant (100=total damage to plant; 0=no damage to plant), GLXMA", "setting": "rate 15", "value": 0}, {"measurement": "damage to plant (100=total damage to plant; 0=no damage to plant), GLXMA", "setting": "rate 30", "value": 0}, {"measurement": "damage to plant (100=total damage to plant; 0=no damage to plant), GLXMA", "setting": "rate 60", "value": 0}, {"measurement": "damage to plant (100=total damage to plant; 0=no damage to plant), GLXMA", "setting": "rate 130", "value": 0}, {"measurement": "damage to plant (100=total damage to plant; 0=no damage to plant), GLXMA", "setting": "rate 250", "value": 0}, {"measurement": "damage to plant (100=total damage to plant; 0=no damage to plant), GLXMA", "setting": "rate 500", "value": 0}, {"measurement": "damage to plant (100=total damage to plant; 0=no damage to plant), IPOHE", "setting": "rate 15", "value": 0}, {"measurement": "damage to plant (100=total damage to plant; 0=no damage to plant), IPOHE", "setting": "rate 30", "value": 0}, {"measurement": "damage to plant (100=total damage to plant; 0=no damage to plant), IPOHE", "setting": "rate 60", "value": 0}, {"measurement": "damage to plant (100=total damage to plant; 0=no damage to plant), IPOHE", "setting": "rate 130", "value": 0}, {"measurement": "damage to plant (100=total damage to plant; 0=no damage to plant), IPOHE", "setting": "rate 250", "value": 0}, {"measurement": "damage to plant (100=total damage to plant; 0=no damage to plant), IPOHE", "setting": "rate 500", "value": 0}, {"measurement": "damage to plant (100=total damage to plant; 0=no damage to plant), ORYSA", "setting": "rate 15", "value": 0}, {"measurement": "damage to plant (100=total damage to plant; 0=no damage to plant), ORYSA", "setting": "rate 30", "value": 0}, {"measurement": "damage to plant (100=total damage to plant; 0=no damage to plant), ORYSA", "setting": "rate 60", "value": 0}, {"measurement": "damage to plant (100=total damage to plant; 0=no damage to plant), ORYSA", "setting": "rate 130", "value": 0}, {"measurement": "damage to plant (100=total damage to plant; 0=no damage to plant), ORYSA", "setting": "rate 250", "value": 0}, {"measurement": "damage to plant (100=total damage to plant; 0=no damage to plant), ORYSA", "setting": "rate 500", "value": 0}, {"measurement": "damage to plant (100=total damage to plant; 0=no damage to plant), PANMI", "setting": "rate 15", "value": 0}, {"measurement": "damage to plant (100=total damage to plant; 0=no damage to plant), PANMI", "setting": "rate 30", "value": 0}, {"measurement": "damage to plant (100=total damage to plant; 0=no damage to plant), PANMI", "setting": "rate 60", "value": 0}, {"measurement": "damage to plant (100=total damage to plant; 0=no damage to plant), PANMI", "setting": "rate 130", "value": 0}, {"measurement": "damage to plant (100=total damage to plant; 0=no damage to plant), PANMI", "setting": "rate 250", "value": 0}, {"measurement": "damage to plant (100=total damage to plant; 0=no damage to plant), PANMI", "setting": "rate 500", "value": 0}, {"measurement": "damage to plant (100=total damage to plant; 0=no damage to plant), SETFA", "setting": "rate 15", "value": 0}, {"measurement": "damage to plant (100=total damage to plant; 0=no damage to plant), SETFA", "setting": "rate 30", "value": 80}, {"measurement": "damage to plant (100=total damage to plant; 0=no damage to plant), SETFA", "setting": "rate 60", "value": 80}, {"measurement": "damage to plant (100=total damage to plant; 0=no damage to plant), SETFA", "setting": "rate 130", "value": 80}, {"measurement": "damage to plant (100=total damage to plant; 0=no damage to plant), SETFA", "setting": "rate 250", "value": 80}, {"measurement": "damage to plant (100=total damage to plant; 0=no damage to plant), SETFA", "setting": "rate 500", "value": 90}, {"measurement": "damage to plant (100=total damage to plant; 0=no damage to plant), SIDSP", "setting": "rate 15", "value": 0}, {"measurement": "damage to plant (100=total damage to plant; 0=no damage to plant), SIDSP", "setting": "rate 30", "value": 0}, {"measurement": "damage to plant (100=total damage to plant; 0=no damage to plant), SIDSP", "setting": "rate 60", "value": 0}, {"measurement": "damage to plant (100=total damage to plant; 0=no damage to plant), SIDSP", "setting": "rate 130", "value": 0}, {"measurement": "damage to plant (100=total damage to plant; 0=no damage to plant), SIDSP", "setting": "rate 250", "value": 0}, {"measurement": "damage to plant (100=total damage to plant; 0=no damage to plant), SIDSP", "setting": "rate 500", "value": 0}, {"measurement": "damage to plant (100=total damage to plant; 0=no damage to plant), SORVU", "setting": "rate 15", "value": 0}, {"measurement": "damage to plant (100=total damage to plant; 0=no damage to plant), SORVU", "setting": "rate 30", "value": 0}, {"measurement": "damage to plant (100=total damage to plant; 0=no damage to plant), SORVU", "setting": "rate 60", "value": 0}]}]}
